{"source": "patent US20250319063A1", "about": "“METHODS AND COMPOUNDS FOR RESTORING MUTANT P53 FUNCTION” (PMV PHARMACEUTICALS, INC., priority 2022, published 2025)", "assay": "Single oral dose plasma pharmacokinetics in fasted and fed healthy subjects (food effect, ethnicity)", "type": "in vivo, human", "settings": "for AUC % extrap: both fed and fasted conditions", "method": "Compound 1 pharmacokinetics were analyzed in healthy subjects administered Compound 1 in a fasted state. A subject was considered fasted if the subject fasted overnight for at least 10 hours and water was permitted ad libitum except for 1 hour before and after drug administration. For fasted subjects, Compound 1 was administered with at least 8 ounces (240 mL) of water. Compound 1 pharmacokinetics were also analyzed in healthy subjects administered Compound 1 in a fed state. A subject was considered fed after consuming a high-fat meal 30 minutes prior to drug administration, and the meal was finished at least 5 minutes prior to drug administration. For both fasted and fed subjects, no food was permitted for at least 4 hours post-dose and water was permitted starting at 1 hour post-dose.\nSubjects were healthy, non-smoking male and female Caucasian/non-Asian or Japanese participants 18 to 55 years of age with a BMI between […].\nIn Part 1 of the study, analysis was performed to compare 1000 mg Compound 1 in fed and fasted states. A dose of 1000 mg of Compound 1 consisted of two 500 mg tablets administered as a single oral dose. The analysis of Part 1 was performed at two separate time points in two different schemes (1A and 1B).\nIn scheme 1A, at period 1, Compound 1 analyzed in healthy subjects administered 1000 mg Compound 1 (n=3) in a fed state. Following a washout period of 7-9 days, these subjects were then administered 1000 mg Compound 1 in a fasted state.\nSeparately, in scheme 1B, at period 1, Compound 1 was analyzed in healthy subjects administered 1000 mg Compound 1 (n=3) in a fasted state. Following a washout period of 7-9 days, these subjects were then administered 1000 mg Compound 1 in a fed state.\nIn Part 2 of the study, analysis was performed to compare 2000 mg Compound 1 in fed and fasted states and also to compared ethnicity of Caucasian/non-Asian subjects and Japanese subjects. A dose of 2000 mg of Compound 1 consisted of four 500 mg tablets administered as a single oral dose.\nFor Caucasian/non-Asian subjects (n=20) the analysis was performed at two separate time points in two different schemes (2A and 2B). During scheme 2A, at period 1, Compound 1 was analyzed in subjects administered 2000 mg Compound 1 (n=10) in a fed state. Following a washout period of 7-9 days, at period 2, these subjects were then administered 2000 mg Compound 1 in a fasted state. Separately in scheme 2B, at period 1, Compound 1 was analyzed in subjects administered 2000 mg Compound 1 (n=10) in a fasted state. Following a washout period of 7-9 days, at period 2, these subjects were then administered 2000 mg Compound 1 in a fed state.\nFor Japanese subjects (n=6), Compound 1 pharmacokinetics were analyzed in subjects administered 2000 mg Compound 1 in a fasted state.\nBlood for the analysis of study drug (Compound 1) and metabolite (M1) were collected.\nVarious pharmacokinetic (PK) parameters were determined for each subject. (Tables 9-12 and FIGS. 23-28).\nStatistical analysis of Compound 1 plasma PK parameters were evaluated for food effects for Part 1 (Table 11) and Part 2 (Table 12). The log-transformed PK parameters were analyzed using an analysis of variance model with treatment (fed/fasted condition) and period as fixed effects and participant as a random effect.", "key": {"[1]": {"settings": "2000 mg oral, Fasted, Caucasian/Non-Asian"}, "[2]": {"settings": "2000 mg oral, Fed, Caucasian/Non-Asian"}}, "note": "Where two headings read alike, the source gives them in different places.", "data": [{"smiles": "CNC(=O)c1ccc(NCC#Cc2cc3c(N[C@@H]4CCN(C)C[C@@H]4F)cccc3n2CC(F)(F)F)c(OC)c1", "note": "[Compound 1, 4-((3-(4-(((3S,4R)-3-fluoro-1-methylpiperidin-4-yl)amino)-1-(2,2,2-trifluoroethyl)-1H-indol-2-yl)prop-2-yn-1-yl)amino)-3-methoxy-N-methylbenzamide]", "values": [{"measurement": "Plasma CL/F and Vz/F, fasted vs fed", "setting": "1000 mg (Part 1)", "value": "slightly higher in the fasted condition"}, {"measurement": "Mean plasma concentrations, fed vs fasted", "setting": "1000 mg and 2000 mg doses", "value": "higher for Caucasian/non-Asian participants under the fed condition compared to the fasted condition"}, {"measurement": "AUC0-inf, % Ratio (Fed/Fasted)", "setting": "1000 mg oral (Part 1)", "value": 120.25, "unit": "%"}, {"measurement": "AUC0-last, % Ratio (Fed/Fasted)", "setting": "1000 mg oral (Part 1)", "value": 120.21, "unit": "%"}, {"measurement": "Cmax, % Ratio (Fed/Fasted)", "setting": "1000 mg oral (Part 1)", "value": 121.75, "unit": "%"}, {"measurement": "AUC% extrap, GeoMean", "setting": "1000 mg oral, Fasted (Part 1)", "value": 1.61, "unit": "%"}, {"measurement": "CL/F, GeoMean", "setting": "1000 mg oral, Fasted (Part 1)", "value": 6.67, "unit": "L/h"}, {"measurement": "λz, GeoMean", "setting": "1000 mg oral, Fasted (Part 1)", "value": 0.0450, "unit": "h⁻¹"}, {"measurement": "AUC0-last, GeoMean", "setting": "1000 mg oral, Fed (Part 1)", "value": 177, "unit": "µg·h/mL"}, {"measurement": "AUC% extrap, GeoMean", "setting": "1000 mg oral, Fed (Part 1)", "value": 1.61, "unit": "%"}, {"measurement": "CL/F, GeoMean", "setting": "1000 mg oral, Fed (Part 1)", "value": 5.55, "unit": "L/h"}, {"measurement": "λz, GeoMean", "setting": "1000 mg oral, Fed (Part 1)", "value": 0.0438, "unit": "h⁻¹"}, {"measurement": "increase of peak exposure (Cmax) with food (high-fat meal) vs fasted", "setting": "1000 mg single dose", "value": "approximately 22%"}, {"measurement": "increase of systemic exposure (AUC0-inf and AUC0-last) with food (high-fat meal) vs fasted", "setting": "1000 mg single dose", "value": "approximately 20%"}, {"measurement": "AUC % extrap", "setting": "1000 mg", "value": "less than 5%"}, {"measurement": "AUC0-inf, % Ratio (Fed/Fasted)", "setting": "2000 mg oral (Part 2)", "value": 178.74, "unit": "%"}, {"measurement": "AUC0-last, % Ratio (Fed/Fasted)", "setting": "2000 mg oral (Part 2)", "value": 172.94, "unit": "%"}, {"measurement": "Cmax, % Ratio (Fed/Fasted)", "setting": "2000 mg oral (Part 2)", "value": 183.82, "unit": "%"}, {"measurement": "AUC% extrap, GeoMean", "setting": "[1]", "value": 3.42, "unit": "%"}, {"measurement": "CL/F, GeoMean", "setting": "[1]", "value": 7.71, "unit": "L/h"}, {"measurement": "λz, GeoMean", "setting": "[1]", "value": 0.0348, "unit": "h⁻¹"}, {"measurement": "AUC0-last, GeoMean", "setting": "2000 mg oral, Fasted, Japanese", "value": 326, "unit": "µg·h/mL"}, {"measurement": "AUC% extrap, GeoMean", "setting": "2000 mg oral, Fasted, Japanese", "value": 2.13, "unit": "%"}, {"measurement": "CL/F, GeoMean", "setting": "2000 mg oral, Fasted, Japanese", "value": 5.92, "unit": "L/h"}, {"measurement": "λz, GeoMean", "setting": "2000 mg oral, Fasted, Japanese", "value": 0.0398, "unit": "h⁻¹"}, {"measurement": "AUC0-last, GeoMean", "setting": "[2]", "value": 448, "unit": "µg·h/mL"}, {"measurement": "AUC% extrap, GeoMean", "setting": "[2]", "value": 4.74, "unit": "%"}, {"measurement": "CL/F, GeoMean", "setting": "[2]", "value": 4.18, "unit": "L/h"}, {"measurement": "λz, GeoMean", "setting": "[2]", "value": 0.0306, "unit": "h⁻¹"}, {"measurement": "increase of AUC0-inf with food (high-fat meal) vs fasted", "setting": "2000 mg single dose", "value": 79, "unit": "%"}, {"measurement": "increase of AUC0-last with food (high-fat meal) vs fasted", "setting": "2000 mg single dose", "value": 73, "unit": "%"}, {"measurement": "increase of peak exposure (Cmax) with food (high-fat meal) vs fasted", "setting": "2000 mg single dose", "value": "approximately 84%"}, {"measurement": "Plasma CL/F and Vz/F, fasted vs fed", "setting": "2000 mg, Caucasian/non-Asian (Part 2)", "value": "slightly higher in the fasted condition"}, {"measurement": "AUC % extrap", "setting": "2000 mg, Caucasian/non-Asian", "value": "less than 17%"}, {"measurement": "Mean plasma concentrations, Japanese vs Caucasian/non-Asian", "setting": "2000 mg, fasted", "value": "higher in Japanese participants compared to Caucasian/non-Asian participants"}, {"measurement": "Plasma CL/F and Vz/F, Japanese vs Caucasian/non-Asian", "setting": "2000 mg, fasted", "value": "numerically lower for Japanese participants"}, {"measurement": "peak exposure (Cmax) and systemic exposure (AUC), Japanese vs Caucasian/non-Asian", "setting": "2000 mg, fasted", "value": "numerically higher in Japanese participants"}, {"measurement": "maximum exposure (Cmax) and systemic exposure (AUC), fed vs fasted", "setting": "Caucasian/non-Asian participants", "value": "higher under fed conditions (high-fat meal) compared to fasted conditions"}, {"measurement": "AUC(0-t)", "setting": "both sexes, human, plasma, po, 1000 mg, 1000 mg oral, Fasted (Part 1), read-out: AUC0-24, GeoMean", "value": 97.9, "unit": "µg·h/mL"}, {"measurement": "AUC(0-t)", "setting": "both sexes, human, plasma, po, 1000 mg, 1000 mg oral, Fasted (Part 1), read-out: AUC0-96, GeoMean", "value": 148, "unit": "µg·h/mL"}, {"measurement": "AUC(0-inf)", "setting": "both sexes, human, plasma, po, 1000 mg, 1000 mg oral, Fasted (Part 1), read-out: AUC0-inf, GeoMean", "value": 150, "unit": "µg·h/mL"}, {"measurement": "AUC(0-inf)", "setting": "both sexes, human, plasma, po, 1000 mg, 1000 mg oral, Fasted (Part 1), read-out: AUC0-inf, Geometric Mean (analysis of variance model)", "value": 150, "unit": "µg·h/mL"}, {"measurement": "AUC(0-t)", "setting": "both sexes, human, plasma, po, 1000 mg, 1000 mg oral, Fasted (Part 1), read-out: AUC0-last, GeoMean", "value": 147, "unit": "µg·h/mL"}, {"measurement": "AUC(0-t)", "setting": "both sexes, human, plasma, po, 1000 mg, 1000 mg oral, Fasted (Part 1), read-out: AUC0-last, Geometric Mean (analysis of variance model)", "value": 147, "unit": "µg·h/mL"}, {"measurement": "Cmax", "setting": "both sexes, human, plasma, po, 1000 mg, 1000 mg oral, Fasted (Part 1), read-out: Cmax, GeoMean", "value": 8690, "unit": "ng/mL"}, {"measurement": "Cmax", "setting": "both sexes, human, plasma, po, 1000 mg, 1000 mg oral, Fasted (Part 1), read-out: Cmax, Geometric Mean (analysis of variance model)", "value": 8690, "unit": "ng/mL"}, {"measurement": "Tmax", "setting": "both sexes, human, plasma, po, 1000 mg, 1000 mg oral, Fasted (Part 1), read-out: Tmax, Median", "value": 2.27, "unit": "h"}]}]}
